Common to all, as to format: cell-based
One experiment has as its target T1, P2X purinoceptor 7 (Homo sapiens, UniProt Q99572).
T1 sequence (Q99572 whole entry): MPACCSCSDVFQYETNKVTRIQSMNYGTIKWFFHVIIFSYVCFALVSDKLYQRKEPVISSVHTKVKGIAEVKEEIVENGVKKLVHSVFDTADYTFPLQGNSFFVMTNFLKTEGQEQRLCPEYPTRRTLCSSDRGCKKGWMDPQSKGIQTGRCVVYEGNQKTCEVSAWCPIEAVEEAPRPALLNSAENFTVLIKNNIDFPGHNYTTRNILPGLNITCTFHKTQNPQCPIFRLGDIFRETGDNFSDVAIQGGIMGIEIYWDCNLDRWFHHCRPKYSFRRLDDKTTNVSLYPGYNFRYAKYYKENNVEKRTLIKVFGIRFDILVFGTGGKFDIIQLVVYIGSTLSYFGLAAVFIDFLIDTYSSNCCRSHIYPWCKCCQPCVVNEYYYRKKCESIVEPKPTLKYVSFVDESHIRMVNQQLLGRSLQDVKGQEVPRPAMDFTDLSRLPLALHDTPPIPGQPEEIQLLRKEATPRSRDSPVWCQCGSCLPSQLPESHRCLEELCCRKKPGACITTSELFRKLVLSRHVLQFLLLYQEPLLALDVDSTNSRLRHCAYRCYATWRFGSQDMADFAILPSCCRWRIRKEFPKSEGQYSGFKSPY
Description: Antagonist activity at human P2X7 receptor expressed in human 1321N1 cells assessed as inhibition of ATP-induced cytosolic calcium influx preincubated for 30 mins followed by ATP addition by Fluo-4 AM dye-based fluorescence assay.

The next experiment deals with T2, P2X purinoceptor 3 (Homo sapiens, UniProt P56373).
T2 sequence (P56373 whole entry): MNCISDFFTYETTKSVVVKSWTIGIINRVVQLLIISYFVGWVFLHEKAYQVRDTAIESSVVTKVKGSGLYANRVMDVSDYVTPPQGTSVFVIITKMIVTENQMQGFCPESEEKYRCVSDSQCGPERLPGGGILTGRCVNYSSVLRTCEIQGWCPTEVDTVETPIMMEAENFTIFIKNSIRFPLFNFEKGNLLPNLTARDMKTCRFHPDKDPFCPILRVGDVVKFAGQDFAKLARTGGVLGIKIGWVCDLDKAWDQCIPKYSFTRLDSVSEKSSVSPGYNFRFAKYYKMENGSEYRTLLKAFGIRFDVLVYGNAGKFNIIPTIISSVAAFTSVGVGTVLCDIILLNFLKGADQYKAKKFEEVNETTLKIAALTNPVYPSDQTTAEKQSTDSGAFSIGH
The experiment in a line: Antagonist activity at human P2X3 receptor expressed in human 1321N1 cells assessed as inhibition of ATP-induced cytosolic calcium influx preincubated for 30 mins followed by ATP addition by Fluo-4 AM dye-based fluorescence assay.

The next experiment has as its target T3, P2X purinoceptor 2 (Homo sapiens, UniProt Q9UBL9).
T3 sequence (Q9UBL9 whole entry): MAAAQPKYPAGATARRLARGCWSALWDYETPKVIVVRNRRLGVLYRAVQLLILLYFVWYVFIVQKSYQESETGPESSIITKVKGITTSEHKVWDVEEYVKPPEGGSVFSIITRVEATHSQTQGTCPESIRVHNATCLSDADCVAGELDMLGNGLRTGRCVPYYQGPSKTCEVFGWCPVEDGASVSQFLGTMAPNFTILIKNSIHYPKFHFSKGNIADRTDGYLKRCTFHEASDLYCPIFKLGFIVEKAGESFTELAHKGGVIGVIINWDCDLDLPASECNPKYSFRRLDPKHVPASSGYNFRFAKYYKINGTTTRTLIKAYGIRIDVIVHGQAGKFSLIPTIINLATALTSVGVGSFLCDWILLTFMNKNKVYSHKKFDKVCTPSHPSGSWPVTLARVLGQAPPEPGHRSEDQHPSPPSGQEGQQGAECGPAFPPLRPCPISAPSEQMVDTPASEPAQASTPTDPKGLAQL
The experiment in a line: Antagonist activity at human P2X2 receptor expressed in human 1321N1 cells assessed as inhibition of ATP-induced cytosolic calcium influx preincubated for 30 mins followed by ATP addition by Fluo-4 AM dye-based fluorescence assay.

Experiment [1] concerns the target T4, P2X purinoceptor 3 (Homo sapiens) (UniProt P56373).
T4 sequence (whole entry): T2 sequence (P56373 whole entry)
Description: Antagonist activity at human P2X3 receptor expressed in human 1321N1 cells assessed as inhibition of ATP-induced cytosolic calcium influx at 10 uM preincubated for 30 mins followed by ATP addition by Fluo-4 AM dye-based fluorescence assay relative to control.

Experiment [2] addresses T5, P2X purinoceptor 1 (Homo sapiens) (UniProt P51575).
T5 sequence (whole entry): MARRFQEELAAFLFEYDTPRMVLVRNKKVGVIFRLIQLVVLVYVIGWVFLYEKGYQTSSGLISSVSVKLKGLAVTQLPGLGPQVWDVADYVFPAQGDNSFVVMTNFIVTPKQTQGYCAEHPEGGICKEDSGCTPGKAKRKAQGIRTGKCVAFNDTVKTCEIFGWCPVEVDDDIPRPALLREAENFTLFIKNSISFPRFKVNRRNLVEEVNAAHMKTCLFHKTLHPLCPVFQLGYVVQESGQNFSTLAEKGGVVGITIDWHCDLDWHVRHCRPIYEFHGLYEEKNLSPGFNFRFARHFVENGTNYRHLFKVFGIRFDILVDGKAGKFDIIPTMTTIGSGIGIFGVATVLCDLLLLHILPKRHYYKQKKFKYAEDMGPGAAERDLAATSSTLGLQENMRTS
The experiment in a line: Antagonist activity at non-desensitizing human P2X1 receptor ( P2X2/P2X1 chimera) expressed in human 1321N1 cells assessed as inhibition of ATP-induced calcium influx at 10 uM pre-incubated for 30 mins before ATP stimulation by FLIPR assay relative to control.

The next experiment has as its target T6, P2X purinoceptor 4 (Homo sapiens, UniProt Q99571).
T6 sequence (Q99571 whole entry): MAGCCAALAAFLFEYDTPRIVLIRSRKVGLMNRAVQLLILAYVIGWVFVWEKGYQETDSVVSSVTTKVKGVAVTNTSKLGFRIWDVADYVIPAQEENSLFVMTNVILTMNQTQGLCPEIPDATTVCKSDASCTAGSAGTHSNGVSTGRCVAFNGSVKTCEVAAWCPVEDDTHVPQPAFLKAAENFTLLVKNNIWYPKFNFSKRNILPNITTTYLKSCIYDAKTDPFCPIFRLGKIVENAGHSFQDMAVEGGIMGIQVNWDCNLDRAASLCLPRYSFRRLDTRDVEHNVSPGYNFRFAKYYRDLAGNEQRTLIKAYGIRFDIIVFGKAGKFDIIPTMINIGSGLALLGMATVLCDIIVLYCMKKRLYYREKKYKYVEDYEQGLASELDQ
The experiment in a line: Antagonist activity at human P2X4 receptor expressed in human 1321N1 cells assessed as inhibition of ATP-induced cytosolic calcium influx preincubated for 30 mins followed by ATP addition by Fluo-4 AM dye-based fluorescence assay.

Experiment [3] addresses T5, P2X purinoceptor 1 (Homo sapiens). Description: Antagonist activity P2X1 receptor in Apyrase pre-treated human platelets assessed as inhibition of TRAP6-induced platelet aggregation pre-incubated for 30 mins before TRAP6 stimulation by aggregometry relative to control.
The target in experiment [4] is T7, P2X purinoceptor 2 (Homo sapiens) (UniProt Q9UBL9).
T7 sequence (whole entry): T3 sequence (Q9UBL9 whole entry)
Description: Antagonist activity at human P2X2 receptor expressed in human 1321N1 cells assessed as inhibition of ATP-induced cytosolic calcium influx at 10 uM preincubated for 30 mins followed by ATP addition by Fluo-4 AM dye-based fluorescence assay relative to control.

The next experiment addresses P2X purinoceptor 1 (Homo sapiens, UniProt P51575). Description: Antagonist activity at non-desensitizing human P2X1 receptor ( P2X2/P2X1 chimera) expressed in human 1321N1 cells assessed as inhibition of ATP-induced calcium influx pre-incubated for 30 mins before ATP stimulation by FLIPR assay relative to control.
Experiment [5] addresses T5, P2X purinoceptor 1 (Homo sapiens). The experiment in a line: Antagonist activity P2X1 receptor in human platelets assessed as inhibition of ADP-induced platelet aggregation pre-incubated for 30 mins before ADP stimulation by aggregometry relative to control.
The target is the same in experiment [6]. Description: Antagonist activity at non-desensitizing human P2X1 receptor ( P2X2/P2X1 chimera) expressed in human 1321N1 cells assessed as inhibition of ATP-induced calcium influx at 100 uM pre-incubated for 30 mins before ATP stimulation by FLIPR assay relative to control.
For experiment [7] the target is unchanged. The experiment in a line: Antagonist activity at non-desensitizing human P2X1 receptor ( P2X2/P2X1 chimera) expressed in human 1321N1 cells assessed as inhibition of ATP-induced calcium influx at 1 uM pre-incubated for 30 mins before ATP stimulation by FLIPR assay relative to control.

The term IC50 denotes the concentration that gives 50% inhibition. One may read the inhibition as the change of the read-out against control, counted positive when it falls. In the case of `O=C(Nc1cc(Cl)cc(Cl)c1)c1cc(Cl)ccc1O`, the IC50 on P2X purinoceptor 7 is 70.4 nM; on P2X purinoceptor 3, over 10000 nM; at P2X purinoceptor 2, over 10000 nM; on P2X purinoceptor 4 it was 712 nM; on P2X purinoceptor 1 it was 29.3 nM. The inhibition in [1] was 5%; in experiment [2] it was 56%; in [3], 13%; in experiment [4], -5%; in experiment [5], 26%.
As to `O=C(Nc1cc(C(F)(F)F)cc(C(F)(F)F)c1)c1ccc(Cl)cc1O`, the IC50 at P2X purinoceptor 7 is 196 nM; on P2X purinoceptor 3 it was over 10000 nM; at P2X purinoceptor 2 it was over 10000 nM; at P2X purinoceptor 4 it was 209 nM; at P2X purinoceptor 1, 23.1 nM. Also, the inhibition in experiment [1] was 2%; in [2] it was 59%; in experiment [4], -5%.
On to `O=C(Nc1cccc(Br)c1)c1ccccc1O`, for which the inhibition in [6] is 98%. Besides, the IC50 at P2X purinoceptor 1 came to 2690 nM.
For the molecule `O=C(Nc1cccc(Cl)c1)c1cc(Cl)ccc1O`, the IC50 is 599 nM at P2X purinoceptor 7; over 10000 nM on P2X purinoceptor 3; over 10000 nM on P2X purinoceptor 2; 135 nM on P2X purinoceptor 4; 75.6 nM at P2X purinoceptor 1. Moreover, the inhibition was 3% in [1], 64% in experiment [2] and 0% in experiment [4].
On to `O=C(Nc1cccc(OC(F)(F)F)c1)c1cc(Cl)ccc1O`, for which the inhibition in experiment [6] was 100%. Also, at P2X purinoceptor 1, the IC50 amounted to 7620 nM.
For the molecule `O=S(=O)(Nc1cc(C(F)(F)F)cc(C(F)(F)F)c1)c1cc(Cl)ccc1O`, the inhibition in experiment [2] came to 80%; in [3] it was 8%; in [5], 27%. The IC50 on P2X purinoceptor 1 came to 439 nM.
Take `O=C(Nc1ccc(Cl)c([N+](=O)[O-])c1)c1cc(Cl)ccc1O`: in [6], the inhibition came to 80%. Further, the IC50 on P2X purinoceptor 1 turned out to be 13500 nM.
For `O=C(Nc1cc([N+](=O)[O-])cc(C(F)(F)F)c1)c1cc(Cl)ccc1O`, the IC50 at P2X purinoceptor 7 was 143 nM; on P2X purinoceptor 3, over 10000 nM; on P2X purinoceptor 2 it was over 10000 nM; on P2X purinoceptor 4, 42.6 nM; on P2X purinoceptor 1 it was 31.6 nM. Moreover, the inhibition in experiment [1] is 16%; in [2], 81%; in [4] it was 5%.
Turning to `O=C(Nc1cc(C(F)(F)F)cc(C(F)(F)F)c1)N1CCCc2cccc(O)c21`, the inhibition in [6] came to 77%. In addition, the IC50 on P2X purinoceptor 1 stood at 10400 nM.
`O=C(Nc1cc(C(F)(F)F)cc(C(F)(F)F)c1)c1cccc(Cl)c1O`: the IC50 was 177 nM at P2X purinoceptor 7; over 10000 nM at P2X purinoceptor 3; over 10000 nM on P2X purinoceptor 2; 48.8 nM at P2X purinoceptor 4; 58 nM on P2X purinoceptor 1. Besides, the inhibition in experiment [1] stood at 28%; in experiment [2], 83%; in experiment [4] it was 13%.
As for `O=C(Nc1cccc(C(F)(F)F)c1)c1cc(Cl)ccc1O`, the IC50 was 6320 nM at P2X purinoceptor 7; over 10000 nM on P2X purinoceptor 3; over 10000 nM on P2X purinoceptor 2; 537 nM on P2X purinoceptor 4; 91 nM at P2X purinoceptor 1. Moreover, the inhibition in experiment [1] amounted to 4%; in experiment [2], 75%; in experiment [4], 5%.
In the case of `O=C(Nc1cc(C(F)(F)F)cc(C(F)(F)F)c1)c1ccccc1`, the inhibition was found to be 79% in experiment [2] and 47% in experiment [5]. The IC50 on P2X purinoceptor 1 was 2220 nM.
Turning to `O=C(Nc1cc(C(F)(F)F)cc(C(F)(F)F)c1)c1ccccc1O`, the IC50 is 315 nM at P2X purinoceptor 7; over 10000 nM at P2X purinoceptor 3; over 10000 nM on P2X purinoceptor 2; 155 nM at P2X purinoceptor 4; 76.9 nM at P2X purinoceptor 1. The inhibition in experiment [1] came to 30%; in [2], 79%; in [4] it was 15%.
Turning to `N#Cc1cccc(NC(=O)c2cc(Cl)ccc2O)c1`, in [7], the inhibition is 60%. Moreover, the IC50 on P2X purinoceptor 1 was 522 nM.
`O=C(Nc1cc([N+](=O)[O-])cc(C(F)(F)F)c1)c1cccc(Cl)c1O`: the inhibition in [6] was determined as 83%. The IC50 on P2X purinoceptor 1 turned out to be 219 nM.
In the case of `COc1ccc(Cl)cc1C(=O)Nc1cc(C(F)(F)F)cc(C(F)(F)F)c1`, the inhibition in experiment [7] was 17%. The IC50 on P2X purinoceptor 1 is over 1000 nM.
